Where two headings read alike, the source gives them in different places.
Assays:
Type in all cases: binding
[1] = target: T1, HeLa cell extract proteins (Homo sapiens, UniProt P05455)
T1 construct: endogenous in cells; host or cells: HeLa cell extract
T1 sequence (P05455 1-408): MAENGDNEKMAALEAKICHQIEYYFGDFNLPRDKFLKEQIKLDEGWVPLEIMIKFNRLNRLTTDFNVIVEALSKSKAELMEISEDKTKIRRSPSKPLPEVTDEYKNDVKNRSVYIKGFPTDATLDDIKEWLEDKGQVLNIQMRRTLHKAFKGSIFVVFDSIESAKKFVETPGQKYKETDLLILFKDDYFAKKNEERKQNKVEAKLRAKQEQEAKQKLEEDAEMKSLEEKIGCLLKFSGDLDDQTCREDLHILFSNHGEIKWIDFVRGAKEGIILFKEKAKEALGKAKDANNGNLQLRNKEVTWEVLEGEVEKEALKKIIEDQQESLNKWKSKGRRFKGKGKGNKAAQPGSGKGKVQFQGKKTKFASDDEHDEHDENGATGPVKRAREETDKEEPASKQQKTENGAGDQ

[2] = target: T2, HeLa cell extract proteins (Homo sapiens, UniProt P31947)
T2 construct: endogenous in cells; host or cells: HeLa cell extract
T2 sequence (P31947 1-248): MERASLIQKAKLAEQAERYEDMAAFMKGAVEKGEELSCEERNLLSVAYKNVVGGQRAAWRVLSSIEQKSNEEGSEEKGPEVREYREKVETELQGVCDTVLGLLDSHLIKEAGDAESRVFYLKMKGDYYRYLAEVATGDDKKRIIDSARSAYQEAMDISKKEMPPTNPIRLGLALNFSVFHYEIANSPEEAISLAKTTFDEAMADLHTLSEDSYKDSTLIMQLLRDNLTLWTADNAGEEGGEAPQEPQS

[3] = target: T3, HeLa cell extract proteins (Homo sapiens, UniProt Q96AG4)
T3 construct: endogenous in cells; host or cells: HeLa cell extract
T3 sequence (Q96AG4 1-307): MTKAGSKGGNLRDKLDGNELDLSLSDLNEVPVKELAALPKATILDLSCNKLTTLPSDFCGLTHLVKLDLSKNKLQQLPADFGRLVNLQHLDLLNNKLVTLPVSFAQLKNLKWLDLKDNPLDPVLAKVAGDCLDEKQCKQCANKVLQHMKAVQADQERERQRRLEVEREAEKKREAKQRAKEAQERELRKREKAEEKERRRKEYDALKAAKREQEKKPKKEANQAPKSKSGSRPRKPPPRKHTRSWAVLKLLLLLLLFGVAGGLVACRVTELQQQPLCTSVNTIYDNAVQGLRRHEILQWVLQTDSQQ

[4] = target: T4, HeLa cell extract proteins (Homo sapiens, UniProt P53621)
T4 construct: endogenous in cells; host or cells: HeLa cell extract
T4 sequence (P53621 1-1224): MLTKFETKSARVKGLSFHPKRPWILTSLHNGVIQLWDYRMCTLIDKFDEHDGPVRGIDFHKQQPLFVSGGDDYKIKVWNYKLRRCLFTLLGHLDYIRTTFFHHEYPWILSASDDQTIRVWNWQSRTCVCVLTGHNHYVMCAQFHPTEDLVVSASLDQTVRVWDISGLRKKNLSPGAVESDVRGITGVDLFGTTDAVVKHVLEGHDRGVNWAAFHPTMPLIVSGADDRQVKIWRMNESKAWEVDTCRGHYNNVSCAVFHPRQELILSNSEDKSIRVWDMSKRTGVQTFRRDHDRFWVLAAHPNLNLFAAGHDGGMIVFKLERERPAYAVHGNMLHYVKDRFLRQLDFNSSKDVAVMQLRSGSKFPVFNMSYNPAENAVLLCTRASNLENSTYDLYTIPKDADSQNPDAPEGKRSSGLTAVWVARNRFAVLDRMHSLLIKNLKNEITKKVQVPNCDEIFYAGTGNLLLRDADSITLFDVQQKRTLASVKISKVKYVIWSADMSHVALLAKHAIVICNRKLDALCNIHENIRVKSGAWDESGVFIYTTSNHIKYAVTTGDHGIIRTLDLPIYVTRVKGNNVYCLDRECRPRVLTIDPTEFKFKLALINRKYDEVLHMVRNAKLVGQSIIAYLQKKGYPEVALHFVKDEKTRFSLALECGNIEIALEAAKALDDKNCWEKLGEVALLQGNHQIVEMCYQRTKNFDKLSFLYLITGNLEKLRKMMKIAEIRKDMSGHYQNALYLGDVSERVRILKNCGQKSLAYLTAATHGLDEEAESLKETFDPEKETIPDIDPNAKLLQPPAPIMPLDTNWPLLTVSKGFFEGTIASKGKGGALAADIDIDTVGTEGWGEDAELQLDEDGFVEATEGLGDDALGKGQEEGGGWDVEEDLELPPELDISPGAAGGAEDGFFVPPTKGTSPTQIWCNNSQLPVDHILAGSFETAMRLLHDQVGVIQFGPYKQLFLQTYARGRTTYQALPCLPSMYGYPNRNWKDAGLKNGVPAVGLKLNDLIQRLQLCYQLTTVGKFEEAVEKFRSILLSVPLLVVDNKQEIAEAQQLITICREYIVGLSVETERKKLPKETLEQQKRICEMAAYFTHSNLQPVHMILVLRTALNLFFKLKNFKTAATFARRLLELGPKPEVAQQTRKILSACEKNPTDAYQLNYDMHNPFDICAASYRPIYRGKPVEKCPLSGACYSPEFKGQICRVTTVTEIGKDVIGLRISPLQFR

[5] = HeLa, protein SSB (LUPUS LA PROTEIN.)

Row | SMILES | fold changes relative to vehicle control ([1]; HeLa, protein SSB) | fold changes relative to vehicle control ([2]; HeLa, protein SFN) | fold changes relative to vehicle control ([3]; HeLa, protein LRRC59) | fold changes relative to vehicle control ([4]; protein COPA, HeLa) | fold changes relative to vehicle control [1, 5] [fold] | fold changes relative to vehicle control ([2]; protein SFN, HeLa) | fold changes relative to vehicle control ([3]; protein LRRC59, HeLa) | fold changes relative to vehicle control [1] | fold changes relative to vehicle control [2] | fold changes relative to vehicle control [3] | fold changes relative to vehicle control [4]
1 | Nc1nc2c(c(=O)[nH]1)N(C=O)C(CNc1ccc(C(=O)N[C@@H](CCC(=O)O)C(=O)O)cc1)CN2 (stereo partly shown) [LEU, leucovorin] | 1.03 | 1.07 | 0.83 | 0.81 | – | – | – | – | – | – | –
2 | NCCCNc1ccc(C(=O)NC(CCC(=O)O)C(=O)O)cc1 (stereo not shown) [compound 7] | 0.99 | 0.97 | 0.87 | 0.89 | – | – | – | – | – | – | –
3 | CCCCCCOc1cccc(Cc2cnc(N)nc2N)c1 [compound 2] | – | – | – | 1.31 | 2.04 | 1.83 | 1.54 | – | – | – | –
4 | CCCCCCOc1ccc(Cc2cnc(N)nc2N)cc1 [compound 1] | – | – | – | 1.07 | 1.38 | 1.27 | 1.14 | – | – | – | –
5 | Nc1nc2cccc(-c3ccccc3)c2n1Cc1ccc(Cl)c(Cl)c1 [compound 3] | – | – | – | 0.93 | 1.01 | 0.82 | 0.98 | – | – | – | –
6 | NCCOCCOCC(=O)Nc1nc2ncc(CNc3ccc(C(=O)NC(CCC(=O)O)C(=O)O)cc3)nc2c(=O)[nH]1 (stereo not shown) [compound 6] | 1.31 | 1.45 | 1.13 | 1 | – | – | – | – | – | – | –
7 | Nc1nc2[nH]cc(CCc3ccc(C(=O)N[C@@H](CCC(=O)O)C(=O)O)cc3)c2c(=O)[nH]1 [PTX, pemetrexed] | – | – | – | – | – | – | – | 1.12 | 1.28 | 0.83 | 0.82

Source: article PMC6199744, “Development of Chemical Proteomics for the Folateome and Analysis of the Kinetoplastid Folateome” (ACS Infectious Diseases, 2018)
